In patent US20100008898A1, “CHYMOTRYPSIN FROM LUCILIA SERICATA LARVAE AND ITS USE FOR THE TREATMENT OF WOUNDS” (priority 2006, published 2010):

Columns and labels:
ES = ES activity after incubation with proteinase inhibitors; parameters: species or system Lucilia sericata
fibroblasts = experiment: Fibroblast adhesion to fibronectin-coated surface (ATP assay); type: cell-based; conditions: for cell adhesion: 1.6 μg/ml commercial trypsin
Experimental: (§1) FIG. 10 is two graphs showing the effect of ES, trypsin, chymotrypsin and trypsin/chymotrypsin mix upon fibroblast cell adhesion to a FN-coated surface, following 24 h incubation, in relation to each enzyme concentration's proteolytic activity. Such activity was assessed by monitoring the release of 7-amino-4-methylcoumarin (AMC) from synthetic peptide substrates for a. trypsin or b. chymotrypsin. Cell adhesion was measured using a firefly luciferase-based luminescent adenosine triphosphate (ATP) assay. Results were expressed as mean % cell adhesion of the control±1SD (n=3).
The present inventors undertook a further experiment to compare the effect of the ES chymotrypsin with a commercially available bovine chymotrypsin. The effect of ES upon fibroblast adhesion to fibronectin was therefore compared with commercially available preparations of trypsin and chymotrypsin. This was achieved by seeding fibroblasts upon a fibronectin-coated surface in the presence of various concentrations of ES, commercial trypsin or commercial chymotrypsin. […] An adenosine triphosphate (ATP) assay was then applied in order to quantify the relative numbers of cells remaining upon the surface according to the concentration of ATP detected.

[1] = Chymotryptic activity, release of AMC from fluorescent peptide substrate; type: biochemical
Experimental: as §1
(§2) Chymotryptic/tryptic activity was assessed by monitoring the release of 7-amino-4-methylcoumarin (AMC) from Suc-Ala-Ala-Pro-Phe-AMC (chymotryptic) and Tosyl-Gly-Pro-Arg-AMC (tryptic). 50 μl of each fraction was incubated with 150 μl of substrate (5 μM) diluted in PBS. Samples were incubated at 37° C. for 30 minutes after which the fluorescence was measured (excitation 365 nm, emission detection 465 nm) using a Dynex MFX microplate fluorimeter. Proteolytic activity is expressed as the number of fluorescence units emitted over 30 minutes following the deduction of a time zero reading.

[2] = Tryptic activity, release of AMC from fluorescent peptide substrate; type: biochemical; conditions: 1.6 μg/ml commercial trypsin vs 5 μg/ml ES
Experimental: as §1, §2

[3] = 0.1 μg/ml commercial chymotrypsin
[4] = 0.2 μg/ml commercial chymotrypsin

N=C(N)c1ccc(CS(=O)(=O)F)cc1 [APMSF, 4-(amidinophenyl) methane sulphonyl fluoride]
tissue remodelling and regeneration properties of the ES after incubation with inhibitor (ES): not lost/inhibited

O=S(=O)(F)Cc1ccccc1 [PMSF, phenyl methanesulphonyl fluoride]
tissue remodelling and regeneration properties of the ES after incubation with inhibitor (ES): lost or inhibited

chymotrypsin [commercial chymotrypsin]
fibroblast adhesion (fibroblasts; [3]): no ability to modify fibroblast adhesion
fibroblast adhesion (fibroblasts; [4]): no effect upon fibroblast adhesion
activity against chymotrypsin-specific substrate relative to ES [1, 3]: 94.1 % of the activity of 5 μg/ml ES
activity against chymotrypsin-specific substrate relative to ES [1, 4]: 204.9 % of the activity of 5 μg/ml ES

trypsin [commercial trypsin]
cell adhesion (fibroblasts; 24 hours incubation): 34.9 % of the control
cell adhesion (fibroblasts; 48 hours incubation): 24.7 % of the control
activity against trypsin-specific substrate relative to ES [2]: 103.2 % of the activity of ES

B1: Soybean Trypsin Inhibitor (protein, UniProt P01070 25-205, looked up)
Trypsin inhibitor A: DFVLDNEGNPLENGGTYYILSDITAFGGIRAAPTGNERCPLTVVQSRNELDKGIGTIISSPYRIRFIAEGHPLSLKFDSFAVIMLCVGIPTEWSVVEDLPEGPAVKIGENKDAMDGWFRLERVSDDEFNNYKLVFCPQQAEDDKCGDIGISIDHDDGTRRLVVSKNKPLVVQFQKLDKESL
ability of ES to enhance fibroblast migration and degrade extra-cellular matrix proteins after incubation with inhibitor (ES): removes the ability of the ES to enhance fibroblast migration and its ability to degrade extra-cellular matrix proteins
